≈ marks a conversion by molar mass, not a printed value. Where two headings read alike, the source gives them in different places.
Columns and labels:
[1] = Solubility experiments (approximate solubility by solvent aliquot addition); type: physicochemical; settings: thermodynamic from solid
Protocol: Approximately 20 mg of Form A of Compound (1) was placed in each of 48 vials and 5 volume aliquots of the appropriate solvent systems were added to the appropriate vial. Between each addition, the mixture was checked for dissolution and if no dissolution was apparent, the mixture was warmed to ca. 50° C. and checked again. This procedure was continued until dissolution was observed or until 100 volumes of solvent had been added.

[2] = Dynamic Vapour Sorption (DVS) with XRPD re-analysis; type: physicochemical
Protocol: Dynamic Vapour Sorption (DVS) was performed on a DVS-1 dynamic vapour sorption balance by Surface Measurement Systems. Approximately 10-20 mg of sample was loaded into a wire mesh vapour sorption balance pan of the balance. The sample was subjected to a ramping profile from 20-90% relative humidity (RH) in 10% increments, maintaining the sample at each step until a stable weight had been achieved (99.5% step completion) or 1000 minutes had elapsed. After completion of the sorption cycle, the sample was dried using the same procedure, but all the way down to 0% RH and finally taken back to the starting point of 20% RH. The weight change during the sorption/desorption cycles were plotted, allowing for the hygroscopic nature of the sample to be determined. Following the DVS analysis, the solid was re-analysed by XRPD in order to determine whether there had been any change in physical form.

A solubility ([1]; organic solvent or mixture, Solvent: Diisopropyl ether (DIPE), ca. 50° C., read-out: Solubility (mg/mL) (ca. 50° C.)) of under 10 mg/mL, a solubility ([1]; organic solvent or mixture, Solvent: Dimethyl sulfoxide (DMSO), RT (ca. 22° C.), read-out: Solubility (mg/mL) RT (ca. 22° C.)) of over 200 mg/mL and a solubility ([1]; organic solvent or mixture, Solvent: Dimethyl sulfoxide (DMSO), ca. 50° C., read-out: Solubility (mg/mL) (ca. 50° C.)) of over 200 mg/mL were found for `O=C(O)CNC(=O)c1ncc(-c2cccc(Cl)c2)cc1O` [Form A of Compound (I), {[5-(3-chlorophenyl)-3-hydroxypyridine-2-carbonyl]amino}acetic acid] in this work. It also gave a solubility ([1]; organic solvent or mixture, Solvent: Dimethylacetamide (DMA), RT (ca. 22° C.), read-out: Solubility (mg/mL) RT (ca. 22° C.)) of over 200 mg/mL, a solubility ([1]; organic solvent or mixture, Solvent: Dimethylacetamide (DMA), ca. 50° C., read-out: Solubility (mg/mL) (ca. 50° C.)) of over 200 mg/mL and a solubility ([1]; organic solvent or mixture, Solvent: Dimethylformamide (DMF), RT (ca. 22° C.), read-out: Solubility (mg/mL) RT (ca. 22° C.)) of over 200 mg/mL. For the same compound, the solubility ([1]; organic solvent or mixture, Solvent: Dimethylformamide (DMF), ca. 50° C., read-out: Solubility (mg/mL) (ca. 50° C.)) was over 200 mg/mL, the solubility ([1]; organic solvent or mixture, Solvent: EtOAc/Cyclohexane (1:2), ca. 50° C., read-out: Solubility (mg/mL) (ca. 50° C.)) was under 10 mg/mL and the solubility ([1]; organic solvent or mixture, Solvent: EtOAc/Toluene (1:2), RT (ca. 22° C.), read-out: Solubility (mg/mL) RT (ca. 22° C.)) was under 14 mg/mL. The solubility ([1]; organic solvent or mixture, Solvent: EtOAc/Toluene (1:2), ca. 50° C., read-out: Solubility (mg/mL) (ca. 50° C.)) was 14 mg/mL (≈ 45.6 mM), the solubility ([1]; organic solvent or mixture, Solvent: Ethanol (EtOH), RT (ca. 22° C.), read-out: Solubility (mg/mL) RT (ca. 22° C.)) was 34 mg/mL (≈ 111 mM) and the solubility ([1]; organic solvent or mixture, Solvent: Ethanol (EtOH), ca. 50° C., read-out: Solubility (mg/mL) (ca. 50° C.)) was over 34 mg/mL. For the same compound, the solubility ([1]; organic solvent or mixture, Solvent: Ethyl acetate (EtOAc), RT (ca. 22° C.), read-out: Solubility (mg/mL) RT (ca. 22° C.)) was under 41 mg/mL, the solubility ([1]; organic solvent or mixture, Solvent: Ethyl acetate (EtOAc), ca. 50° C., read-out: Solubility (mg/mL) (ca. 50° C.)) was 41 mg/mL (≈ 134 mM) and the solubility ([1]; organic solvent or mixture, Solvent: Ethylene glycol, RT (ca. 22° C.), read-out: Solubility (mg/mL) RT (ca. 22° C.)) was under 10 mg/mL. For the same compound, the solubility ([1]; organic solvent or mixture, Solvent: Ethylene glycol, ca. 50° C., read-out: Solubility (mg/mL) (ca. 50° C.)) was under 10 mg/mL, the solubility ([1]; organic solvent or mixture, Solvent: Heptane, RT (ca. 22° C.), read-out: Solubility (mg/mL) RT (ca. 22° C.)) was under 10 mg/mL and the solubility ([1]; organic solvent or mixture, Solvent: Heptane, ca. 50° C., read-out: Solubility (mg/mL) (ca. 50° C.)) was under 10 mg/mL. For the same compound, the solubility ([1]; organic solvent or mixture, Solvent: Isobutyl acetate (iBuOAc), RT (ca. 22° C.), read-out: Solubility (mg/mL) RT (ca. 22° C.)) was under 20 mg/mL, the solubility ([1]; organic solvent or mixture, Solvent: Isobutyl acetate (iBuOAc), ca. 50° C., read-out: Solubility (mg/mL) (ca. 50° C.)) was 20 mg/mL (≈ 65.2 mM) and the solubility ([1]; organic solvent or mixture, Solvent: Isopropyl acetate (iPrOAc), RT (ca. 22° C.), read-out: Solubility (mg/mL) RT (ca. 22° C.)) was under 26 mg/mL. It also gave a solubility ([1]; organic solvent or mixture, Solvent: Isopropyl acetate (iPrOAc), ca. 50° C., read-out: Solubility (mg/mL) (ca. 50° C.)) of 26 mg/mL (≈ 84.8 mM), a solubility ([1]; organic solvent or mixture, Solvent: MeOH/Water (1%), RT (ca. 22° C.), read-out: Solubility (mg/mL) RT (ca. 22° C.)) of under 40 mg/mL and a solubility ([1]; organic solvent or mixture, Solvent: MeOH/Water (1%), ca. 50° C., read-out: Solubility (mg/mL) (ca. 50° C.)) of 40 mg/mL (≈ 130 mM). It also gave a solubility ([1]; organic solvent or mixture, Solvent: MeOH/Water (20%), RT (ca. 22° C.), read-out: Solubility (mg/mL) RT (ca. 22° C.)) of under 10 mg/mL, a solubility ([1]; organic solvent or mixture, Solvent: Methanol (MeOH), RT (ca. 22° C.), read-out: Solubility (mg/mL) RT (ca. 22° C.)) of under 51 mg/mL and a solubility ([1]; organic solvent or mixture, Solvent: Methanol (MeOH), ca. 50° C., read-out: Solubility (mg/mL) (ca. 50° C.)) of 51 mg/mL (≈ 166 mM). For the same compound, the solubility ([1]; organic solvent or mixture, Solvent: Methyl acetate (MeOAc), RT (ca. 22° C.), read-out: Solubility (mg/mL) RT (ca. 22° C.)) was under 68 mg/mL, the solubility ([1]; organic solvent or mixture, Solvent: Methyl acetate (MeOAc), ca. 50° C., read-out: Solubility (mg/mL) (ca. 50° C.)) was 68 mg/mL (≈ 222 mM) and the solubility ([1]; organic solvent or mixture, Solvent: Methyl ethyl ketone (MEK), RT (ca. 22° C.), read-out: Solubility (mg/mL) RT (ca. 22° C.)) was under 100 mg/mL. The solubility ([1]; organic solvent or mixture, Solvent: Methyl ethyl ketone (MEK), ca. 50° C., read-out: Solubility (mg/mL) (ca. 50° C.)) was 100 mg/mL (≈ 326 mM), the solubility ([1]; organic solvent or mixture, Solvent: Methyl isobutyl ketone (MIBK), RT (ca. 22° C.), read-out: Solubility (mg/mL) RT (ca. 22° C.)) was under 34 mg/mL and the solubility ([1]; organic solvent or mixture, Solvent: Methyl isobutyl ketone (MIBK), ca. 50° C., read-out: Solubility (mg/mL) (ca. 50° C.)) was 34 mg/mL (≈ 111 mM). The solubility ([1]; organic solvent or mixture, Solvent: N-methyl-2-pyrrolidone (NMP), RT (ca. 22° C.), read-out: Solubility (mg/mL) RT (ca. 22° C.)) was over 200 mg/mL, the solubility ([1]; organic solvent or mixture, Solvent: N-methyl-2-pyrrolidone (NMP), ca. 50° C., read-out: Solubility (mg/mL) (ca. 50° C.)) was over 200 mg/mL and the solubility ([1]; organic solvent or mixture, Solvent: Nitromethane, RT (ca. 22° C.), read-out: Solubility (mg/mL) RT (ca. 22° C.)) was under 10 mg/mL. The solubility ([1]; organic solvent or mixture, Solvent: Nitromethane, ca. 50° C., read-out: Solubility (mg/mL) (ca. 50° C.)) was under 10 mg/mL, the solubility ([1]; organic solvent or mixture, Solvent: Tetrahydrofuran (THF), RT (ca. 22° C.), read-out: Solubility (mg/mL) RT (ca. 22° C.)) was over 200 mg/mL and the solubility ([1]; organic solvent or mixture, Solvent: Tetrahydrofuran (THF), ca. 50° C., read-out: Solubility (mg/mL) (ca. 50° C.)) was over 200 mg/mL. For the same compound, the solubility ([1]; organic solvent or mixture, Solvent: Toluene, RT (ca. 22° C.), read-out: Solubility (mg/mL) RT (ca. 22° C.)) was under 10 mg/mL, the solubility ([1]; organic solvent or mixture, Solvent: Toluene, ca. 50° C., read-out: Solubility (mg/mL) (ca. 50° C.)) was under 10 mg/mL and the solubility ([1]; organic solvent or mixture, Solvent: Trifluoroethanol (TFE), RT (ca. 22° C.), read-out: Solubility (mg/mL) RT (ca. 22° C.)) was under 10 mg/mL. The solubility ([1]; organic solvent or mixture, Solvent: Trifluoroethanol (TFE), ca. 50° C., read-out: Solubility (mg/mL) (ca. 50° C.)) was under 10 mg/mL, the solubility ([1]; organic solvent or mixture, Solvent: methyl tert-butyl ether (MTBE), RT (ca. 22° C.), read-out: Solubility (mg/mL) RT (ca. 22° C.)) was 14 mg/mL (≈ 45.6 mM) and the solubility ([1]; organic solvent or mixture, Solvent: methyl tert-butyl ether (MTBE), ca. 50° C., read-out: Solubility (mg/mL) (ca. 50° C.)) was over 14 mg/mL. The solubility ([1]; Solvent: Water, RT (ca. 22° C.), read-out: Solubility (mg/mL) RT (ca. 22° C.)) was under 10 mg/mL, the solubility ([1]; Solvent: Water, ca. 50° C., read-out: Solubility (mg/mL) (ca. 50° C.)) was under 10 mg/mL and the “water sorption at 90% RH” value ([2]; DVS, 90% RH) was 0.13%. The “XRPD analysis following DVS (change in physical form)” value ([2]; after DVS sorption/desorption cycle) was “no change in form” and the “hygroscopicity (DVS)” value ([2]; judged from water sorption at 90% RH) was “non-hygroscopic”.

— US12419877B2, “Solid forms of {[5-(3-chlorophenyl)-3-hydroxypyridine-2-carbonyl]amino}acetic acid, compositions, and uses thereof” (Akebia Therapeutics, Inc., priority 2013, dated 2025)
